For data set [1], the system named is human primary hepatocytes. Kind of data set: Cell viability, human primary hepatocytes (Eurofins Panlabs). The class given is cell-based. The following applies: Homo sapiens, Hepatocyte; plateable cryopreserved hepatocytes, alamarBlue, 24 h 37 °C, fluorimetry; 8-point 0.1–300 μM. The method, then: Cell viability of human primary hepatocytes against AA139 was assessed by fluorometric readout of Alamar Blue following 24 h incubation at 37 °C of human plateable cryopreserved hepatocytes and AA139 as an 8-point dose response, 0.1–300 μM, as described by Nociari et al.[41]. Cell viability was calculated as a percentage of the control cells and plotted versus concentration using Prism 8 Software. The IC50 value was determined by non-linear regression analysis of the concentration–response curve using the Hill equation. Assay was performed by Eurofins Pharma Discovery Services (Panlabs), St Charles, MO, USA, study number 100049990. Source data are provided as a source data file.
Background: Resazurin is reduced to fluorescent resorufin, in cell work by metabolically active cells.

For data set [2], the system named is S. enterica Typhi. Kind of data set: microbe, parasite or virus in culture. The following applies: for MIC: Salmonella enterica, ATCC14028 / TYPHI, read-out: BMD MIC. The procedure, abridged:
(§1)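 MICs were scored by eye after 18-20 h static incubation at 37 °C, with bacteria at 5 × 10^5 CFU mL^−1 in MHB. Peptides were serially diluted 2-fold over 12 points, top 128 or 64 μg mL^−1. CAMHB (CLSI) and 1% agarose-MHB variants were also run, at least six replicates.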

Data set [3] has as its system L. monocytogenes. Kind of data set: microbe, parasite or virus in culture. The procedure, abridged:
as §1

In data set [4] the test system is B. subtilis. Briefly: microbe, parasite or virus in culture. The following applies: for MIC: Bacillus subtilis. The procedure, abridged:
as §1

Data set [5] deals with S. aureus. Briefly: microbe, parasite or virus in culture. The following applies: Staphylococcus aureus, mode of 6 replicates. The procedure, abridged: as §1
Data set [6] concerns P. aeruginosa clinical isolates. Kind of data set: microbe, parasite or virus in culture. The method, then:
(§2) The in vitro activity of AA139 and comparator antimicrobials was determined in two panels of clinical isolates of E. coli, K. pneumoniae, P. aeruginosa, and A. baumannii (Supplementary Table 3), and MIC90 presented. The US panel consisted of 331 clinical isolates from 2010 to 2012. It was tested by BMD in accordance with the CLSI guidelines (M07-A9, 2012)[39]. […] AA139 was diluted in 0.01% acetic acid/0.1% bovine serum albumin. Sterile polypropylene culture cluster round-bottom 96-well plates (Costar # 3879) were used for testing. The worldwide panel consisted of 445 clinical isolates from 2011 to 2013, geographically divided into Asia, Europe, North America, and Rest of World (Middle East, Latin America, Africa, and South Pacific) with each region representing ~25% of the isolates. It was tested by broth microdilution in accordance with the CLSI guidelines (M07-A9, 2012)[39]. […] The test media was CAMHB (Becton Dickinson). AA139 and polymyxin B were tested in media supplemented with 0.002% Tween 80 (Calbiochem). MIC90 values were calculated for all or subsets of the isolates. MIC correlation between AA139 and colistin was analyzed with data from the US panel.

In data set [7] the test system is A. baumannii clinical isolates. Briefly: microbe, parasite or virus in culture. The method, then:
as §2

The subject of data set [8] is K. pneumoniae clinical isolates. Briefly: microbe, parasite or virus in culture. On the procedure:
as §2

Data set [9] has as its system E. coli clinical isolates. Briefly: microbe, parasite or virus in culture. On the procedure:
as §2

For data set [10], the system named is E. coli. Briefly: microbe, parasite or virus in culture. The following applies: Escherichia coli. The method in brief: as §1
In data set [11] the test system is P. aeruginosa. Briefly: microbe, parasite or virus in culture. The following applies: for MIC: Pseudomonas aeruginosa, mode of 6 replicates. The method in brief:
as §1

In data set [12] the test system is A. baumannii. Kind of data set: microbe, parasite or virus in culture. The following applies: for MIC: Acinetobacter baumannii, mode of 6 replicates. The procedure, abridged:
as §1

The test system of data set [13] is K. pneumoniae. Kind of data set: microbe, parasite or virus in culture. The following applies: for MIC: Klebsiella pneumoniae, mode of 6 replicates. The procedure, abridged: as §1
Data set [14] has as its system E. coli. Also noted: method as in Hasman H, et al. Euro. Surveill. (2015) 20:49. The following applies: E. coli ESBL20150072, mcr-1 pos; ESBL; CAMHB; comparator antibiotics; ref Hasman H, et al. Euro. Surveill. (2015) 20:49; cited from earlier work.
Data set [15] has as its system HK-2 human kidney proximal tubule cells. Kind of data set: in vitro.
The test system of data set [16] is HEK-293 human embryonic kidney cells. Kind of data set: in vitro.
Data set [17] deals with HepG2 liver hepatocellular carcinoma cells. Briefly: in vitro.
A short description of data set [18]: in vitro. The following applies: human.
The test system of data set [19] is human erythrocytes (HRBC). In kind it is cell-based.
Data set [20] relates to C. albicans. Kind of data set: microbe, parasite or virus in culture.
Data set [21] has as its system C. neoformans. Kind of data set: microbe, parasite or virus in culture.
In data set [22] the test system is E. coli ATCC 25922. Briefly: microbe, parasite or virus in culture. In kind it is cell-based, Escherichia coli. The following applies: ATCC 25922. The method in brief: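 Broth microdilution MIC in Mueller Hinton broth, 12-point 2-fold series from 128 or 64 down to 0.06 or 0.03 μg mL^−1, 5 × 10^5 CFU mL^−1 inoculum. Read visually after 18-20 h at 37 °C without shaking; n ≥ 6. Additional tests in CAMHB, and in MHB with 1% agarose.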

Setting [23] is: Worldwide isolates 2011-2013, P. aeruginosa n = 111.
Setting [24] is: Worldwide isolates 2011-2013, A. baumannii n = 108.
The mark [25] stands for this setting: Worldwide isolates 2011-2013, K. pneumoniae n = 114.
Where [26] appears, read: Worldwide isolates 2011-2013, E. coli n = 112.

pIC50: −log10 of the molar value. Converted amounts (≈) assume the structure as drawn. Where two headings read alike, the source gives them in different places. Residues, ends and D or L forms follow the SMILES beside them.

In the case of `CN(C)CCCN1c2ccccc2Sc2ccc(Cl)cc21` [Chlorpromazine, reference compound], in data set [1], the pIC50 (commonly the IC50 on a negative log10 scale, so that one unit is a factor of ten) is 4.46.
Consider `CN[C@H](CC(C)C)C(=O)N[C@H]1C(=O)N[C@@H](CC(N)=O)C(=O)N[C@H]2C(=O)N[C@H]3C(=O)N[C@H](C(=O)N[C@H](C(=O)O)c4cc(O)cc(O)c4-c4cc3ccc4O)[C@H](O)c3ccc(c(Cl)c3)Oc3cc2cc(c3O[C@@H]2O[C@H](CO)[C@@H](O)[C@H](O)[C@H]2O[C@H]2C[C@](C)(N)[C@H](O)[C@H](C)O2)Oc2ccc(cc2Cl)[C@H]1O` [Vancomycin, reference compound], for which the MIC was > 64 µg/mL in data set [2]; 4 µg/mL (≈ 2.76 µM) in data set [3] (Listeria monocytogenes, ATCC19112, read-out: BMD MIC); 0.25 µg/mL (≈ 0.173 µM) in [4] (ATCC6051 / NRS744, read-out: BMD MIC); 0.25 µg/mL (≈ 0.173 µM) in [4] (ATCC6633 / NRS231, read-out: BMD MIC); 2 µg/mL (≈ 1.38 µM) in [5] (ATCC25923|MSSA, read-out: BMD MIC, S. aureus ATCC 25923 MSSA, CAMHB); 1 µg/mL (≈ 0.69 µM) in data set [5] (ATCC25923|MSSA, read-out: BMD MIC, S. aureus ATCC 25923 MSSA, MHB). The MIC in [5] (ATCC43300|MRSA, read-out: BMD MIC, S. aureus ATCC 43300 MRSA, MHB) came out at 1 µg/mL (≈ 0.69 µM).
Take `CC(C)(O/N=C(\C(=O)N[C@@H]1C(=O)N2C(C(=O)[O-])=C(C[n+]3ccccc3)CS[C@H]12)c1csc(N)n1)C(=O)O` [Ceftazidime, ceftazidime, reference compound]: the MIC90 in data set [6] (Pseudomonas aeruginosa, US isolates 2010–2012, P. aeruginosa Non-MDR, n = 41) was 32 µg/mL (≈ 58.5 µM); in data set [6] (Pseudomonas aeruginosa, US isolates 2010–2012, P. aeruginosa XDR, n = 37), > 32 µg/mL; in data set [6] (setting [23]), > 32 µg/mL; in data set [7] (Acinetobacter baumannii), > 32 µg/mL; in data set [7] (US isolates 2010–2012, A. baumannii MDR, n = 19), >32 µg/mL; in data set [7] (US isolates 2010–2012, A. baumannii XDR, n = 31), >32 µg/mL. The MIC90 is > 32 µg/mL in [7] (setting [24]); 1 µg/mL (≈ 1.83 µM) in data set [8] (Klebsiella pneumoniae, US isolates 2010–2012, K. pneumoniae Non-MDR, n = 24); > 32 µg/mL in data set [8] (Klebsiella pneumoniae, US isolates 2010–2012, K. pneumoniae XDR, n = 55); > 32 µg/mL in data set [8] (setting [25]); 32 µg/mL (≈ 58.5 µM) in data set [9] (Escherichia coli); > 32 µg/mL in data set [9] (Escherichia coli, US isolates 2010–2012, E. coli MDR, n = 31). For the same compound, the MIC90 turned out to be 2 µg/mL (≈ 3.66 µM) in data set [9] (Escherichia coli, US isolates 2010–2012, E. coli Non-MDR, n = 24) and 32 µg/mL (≈ 58.5 µM) in data set [9] (setting [26]). In addition, the MIC50 in data set [6] (setting [23]) was 4 µg/mL (≈ 7.32 µM); in data set [7] (setting [24]), > 32 µg/mL; in [8] (setting [25]), 1 µg/mL (≈ 1.83 µM); in data set [9] (setting [26]), 0.25 µg/mL (≈ 0.457 µM). The MIC was 1 µg/mL (≈ 1.83 µM) in data set [10] (ATCC25922, read-out: BMD MIC, E. coli ATCC 25922 FDA control strain, CAMHB, mode of 6 replicates); ≤ 0.5 µg/mL in data set [10] (ATCC700926 / MG1655, read-out: BMD MIC); ≤ 0.25 µg/mL in [10] (ATCC700928, read-out: BMD MIC, E. coli ATCC 700928 CFT073 UPEC, CAMHB, mode of 6 replicates); 16 µg/mL (≈ 29.3 µM) in [10] (read-out: BMD MIC); ≤ 0.5 µg/mL in data set [2]; 8 µg/mL (≈ 14.6 µM) in [11] (ATCC27853, read-out: BMD MIC, P. aeruginosa ATCC 27853 control strain, CAMHB). Besides, the MIC is > 64 µg/mL in data set [11] (read-out: BMD MIC, P. aeruginosa FADDI-070, MDR, PmxR, MHB/CAMHB); 16 µg/mL (≈ 29.3 µM) in data set [12] (ATCC19636, read-out: BMD MIC, A. baumannii ATCC 19636 type strain, CAMHB); > 64 µg/mL in [12] (read-out: BMD MIC, A. baumannii Greece CI, XDR, PmxR, MHB); 1 µg/mL (≈ 1.83 µM) in data set [13] (ATCC13883, read-out: BMD MIC, K. pneumoniae ATCC 13883 type strain (polymyxin/colistin heteroresistant), MHB); > 64 µg/mL in data set [13] (ATCC700603, read-out: BMD MIC, K. pneumoniae ATCC 700603 (K6), MDR, OXA-2/SHV-18, CAMHB); > 64 µg/mL in [13] (BAA2146, read-out: BMD MIC, K. pneumoniae BAA-2146, MDR, ESBL, NDM-1 pos, MHB). In addition, in data set [13] (read-out: BMD MIC, K. pneumoniae Greece CI 8_GR_13, XDR, KPC-2, PmxR, MHB), the MIC was > 64 µg/mL. In data set [14], the “BMD MIC” value is >16 µg/mL.
Turning to `CC(C)[C@@H]1NC(=O)CNC(=O)[C@H](CC(N)=O)NC(=O)[C@H](CCCNC(=N)N)NC(=O)[C@H](Cc2ccc(O)cc2)NC(=O)[C@H](C(C)C)NC(=O)[C@@H]2CSSC[C@H](NC(=O)[C@H](C(C)C)NC(=O)[C@H](CCCNC(=N)N)NC1=O)C(=O)N[C@@H](Cc1ccc(O)cc1)C(=O)N[C@@H](CCCNC(=N)N)C(=O)N[C@@H](CCCNC(=N)N)C(=O)N[C@H](C(=O)N[C@@H](CC(N)=O)C(=O)O)CSSC[C@H](NC(=O)[C@H](Cc1ccccc1)NC(=O)CN)C(=O)N[C@@H](Cc1c[nH]c3ccccc13)C(=O)N[C@@H](Cc1ccc(O)cc1)C(=O)N[C@@H](C(C)C)C(=O)N2` [Arenicin-3] (HELM PEPTIDE1{G.F.C.W.Y.V.C.V.Y.R.N.G.V.R.V.C.Y.R.R.C.N}$PEPTIDE1,PEPTIDE1,3:R3-20:R3|PEPTIDE1,PEPTIDE1,7:R3-16:R3$$$V2.0), the “CC50 HK2, Mean” value in data set [15] was determined as 170 µg/mL (≈ 65.1 µM). Also, the “CC50 HEK293, Mean” value in [16] is 271 µg/mL (≈ 104 µM). The “CC50 HepG2” value in [17] was >300 µg/mL; in data set [17] (human, HepG2 cells, 24 h) it was >300 µg/mL. Besides, the “CC50 HepG2, Mean” value in [17] is >300 µg/mL. Also, the results for the CC50 at 24 h in data set [18] (HEK-293 cells) and in data set [18] (HK-2 cells) were 271 µg/mL (≈ 104 µM) and 170 µg/mL (≈ 65.1 µM), respectively. Further, the “Heamolysis HC10, Mean” value in data set [19] amounted to 204 µg/mL. For the same compound, the “BMD MIC” value was >32 µg/mL in data set [20]; >64 µg/mL in [20] (24 h); 2 µg/mL in data set [2] (Typhi); 1 µg/mL in data set [11]; 1 µg/mL in [21]; 8 µg/mL in data set [3]. Also, the “BMD MIC” value in data set [4] is 8 µg/mL; in data set [12], 1 µg/mL; in data set [13], 1 µg/mL. The “MIC, MHB” value in data set [22] came to 1 µg/mL (≈ 0.383 µM).

The record behind these values is PMC7311426, “An amphipathic peptide with antibiotic activity against multidrug-resistant Gram-negative bacteria” (Nature Communications, 2020).
